The values that follow come from PMC5937091, “Efficacy of Alpha Glucosidase Inhibitor from Marine Actinobacterium in the Control of Postprandial Hyperglycaemia in Streptozotocin (STZ) Induced Diabetic Male Albino Wister Rats” (Iranian Journal of Pharmaceutical Research : IJPR, 2018).

The test concerns the target T1, mammalian α-glucosidase (rat α-glucosidase; rat-intestinal acetone powder).
T1 construct: gene Si; crude soluble supernatant of sonicated rat-intestinal acetone powder (Sigma-Aldrich); native, not purified
The test can be described thus: colorimetric inhibition assay, absorbance at […] nm. The format is biochemical. The settings on record: substrate p-nitrophenyl α-D-glucopyranoside, phosphate buffer pH 6.8, 37 °C (as in screening protocol); mode printed both as competitive and as non-competitive.

Each structure is given as a SMILES string. In brackets after ≈: the same amount, converted by molar mass.

One may read the IC50 as the midpoint of a concentration-inhibition curve. High values mean weaker potency in that assay, low ones greater potency in that assay. For the molecule `CN1C(=O)C(CCl)N(C(=O)OC(C)(C)C)C1C(C)(C)C` (stereo not shown) [2-t-butyl-5-chloromethyl-3-methyl-4-oxoimidazolidine-1-carboxylic acid, t-butyl ester], the IC50 amounted to 32.08 µg/mL (≈ 105 µM).
